# Measurements as given in publication PMC9486951, “Tetramate Derivatives by Chemoselective Dieckmann Ring Closure of threo-Phenylserines and Their Antibacterial Activity” (The Journal of Organic Chemistry, 2022).
# Read-outs that look alike come from different tables or passages of the source.
# Tests used:
# [1] = test system: MRSA; experiment: Broth dilution MIC against MRSA with added metal cations; assay type: cell-based; conditions: Staphylococcus aureus, addition of Fe, Ca, Mg and Zn at concentration as found in blood
# Protocol: (§1) As tetramic acids are well-known metal chelators,[1],[20] of interest was to investigate whether this loss of activity was due to metal chelation or plasma protein binding (PPB), specifically with human serum albumin (HSA).[17],[18] To answer this question, bicyclic tetramate 12a was tested against MRSA using a broth dilution assay, under standard conditions and with the addition of similar metal cations (Fe, Ca, Mg, and Zn) with concentration as that found in blood, respectively. […] Bicyclic tetramate 12a was also tested against MRSA using a broth dilution assay, under standard conditions but in the presence of one-third the serum albumin concentration as that found in human blood. […] A review has shown that PPB strongly correlates with increased hydrophobicity, and this might point to a problem with the tetramate class, which clearly depends upon hydrophobicity for their antibacterial activity, as noted above.[21]
# [2] = test system: Hela cell line; experiment: Cytotoxicity assay (Alamar blue), Hela; assay type: cell-based, human; conditions: for EC50: Homo sapiens, HeLa, read-out: cell lines EC50, Hela
# Protocol: (§2) The selectivity of these compounds for activity against prokaryotic cells over mammalian cells was analyzed by considering their cytotoxicity against Hela, heK-293, CaCo, and MDCK […] cell lines, allowing estimation of the therapeutic ratio [EC50Hela cell line/MIC(S. aureus)] (Table 3). […]
# (§3) Screening of compounds were performed by Oxford Antibiotic Group, Austria. For MIC determination by broth dilution assay, the samples were tested in a primary 96 well plates screening assay, in duplicate. The compounds were diluted in Mueller Hinton Broth (MHB) for bacterial screening to a stock solution of 1000 µg/mL, serial diluted and overlaid with a microbe solution in a concentration of 10^4 CFU/ml. The plates were incubated for […]
# (§4) For cytotoxicity testing, the synthesized compounds were tested against four different cell lines: HeLa, HEK 293, MDCK and CaCo. The cells were seeded in a 96 well plate and incubated until a confluence of 80% was achieved (under physiological conditions - 37°C, 5% CO2 and 95% humidity). The samples were tested by serial dilution in triplicates with starting concentration of 250 µg/mL. After 24 and 48 hours the survival of cells was evaluated by microscope and measured with Alamar blue. IC50 values were obtained from the calibration curves. […]
# [3] = test system: methicillin-resistant Staphylococcus aureus (MRSA); experiment: MIC determination by broth dilution assay against MRSA; assay type: cell-based
# Protocol: (§5) With access to these derivatives routinely available, an assessment of their antibacterial activity was made by measuring minimum inhibitory concentration (MIC) values (Table S6) against two example organisms, methicillin-resistant Staphylococcus aureus (MRSA) and E. coli. […] By contrast, a more polar substituent at the C7-position (pyran 12t) compromised the antibacterial activity (125 μg/mL). […] Compound 13b had the same activity as 12g at 1.00 μg/mL. Overall, increasing lipophilicity corresponded to higher potency against MRSA. […]
# as §3, with “CFU/ml.” for “CFU/ml. The plates were incubated for”
# [4] = test system: MRSA; experiment: Broth dilution MIC against MRSA in the presence of serum albumin; assay type: cell-based; conditions: Staphylococcus aureus, one-third the serum albumin concentration found in human blood
# Protocol: as §1
# [5] = test system: heK-293 cell line; experiment: Cytotoxicity assay (Alamar blue), heK-293; assay type: cell-based; conditions: Homo sapiens, HEK293; read-out: cell lines EC50, heK-293
# Protocol: as §2
# (§6) Screening of compounds were performed by Oxford Antibiotic Group, Austria. […]
# as §4
# [6] = test system: MDCK cell line; experiment: Cytotoxicity assay (Alamar blue), MDCK; assay type: cell-based; conditions: read-out: cell lines EC50, MDCK
# Protocol: as §2, §6, §4
# [7] = test system: CaCo cell line; experiment: Cytotoxicity assay (Alamar blue), CaCo; assay type: cell-based; conditions: Homo sapiens; read-out: cell lines EC50, CaCo
# Protocol: as §2, §6, §4
# [8] = test system: E. coli; experiment: MIC determination by broth dilution assay against E. coli; assay type: cell-based
# Protocol: as §5
# as §3, with “CFU/ml.” for “CFU/ml. The plates were incubated for”
# [9] = Staphylococcus aureus, MRSA, Table 3, read-out: MIC(S. aureus)
# [10] = Staphylococcus aureus, MRSA, Table S5, against S. aureus, read-out: MIC
# [11] = Staphylococcus aureus, MRSA, broth dilution, read-out: MIC against MRSA
# [12] = Staphylococcus aureus, MRSA, Table S6, read-out: MIC
"MIC [3, 10]","MIC [3, 11]",MIC ([3]; Table S6),Structure (SMILES),other results
0.25 µg/mL,0.25 µg/mL,0.25 µg/mL,CC(C)(C)[C@@H]1O[C@H](c2ccccc2)[C@H]2C(O)=C(C(=O)NC34CC5CC(CC(C5)C3)C4)C(=O)N21 (mixture of isomers) [12a],"MIC [1]: 0.24 µg/mL; therapeutic ratio / selectivity for bacteria over the Hela cell line ([2]; EC50 Hela cell line/MIC(S. aureus)): 26 fold; EC50 [2]: 7.8 µg/mL; MIC [3, 9]: 0.3 µg/mL; MIC ([3]; Staphylococcus aureus, MRSA, broth dilution assay, standard conditions (control of metal cation experiment), read-out: MIC against MRSA, standard conditions): 0.49 µg/mL; MIC [4]: 7.81 µg/mL; EC50 [5]: 31.3 µg/mL; EC50 [6]: 7.8 µg/mL; EC50 [7]: 15.6 µg/mL"
–,3.9 µg/mL,–,Cc1ccc([C@H]2O[C@@H](C(C)(C)C)N3C(=O)C(C(=O)NC45CC6CC(CC(C6)C4)C5)=C(O)[C@H]23)cc1 (mixture of isomers) [13a],"MIC [3, 12]: 3.9 µg/mL; MIC ([3]; Table S5, against S. aureus): 3.9 µg/mL"
–,1 µg/mL,–,CC(C)(C)[C@@H]1O[C@H](c2ccc(F)cc2)[C@H]2C(O)=C(C(=O)NC34CC5CC(CC(C5)C3)C4)C(=O)N21 (mixture of isomers) [compound 20],"MIC [3, 12]: 1 µg/mL; MIC ([3]; Table S5, against S. aureus): 1.0 µg/mL"
–,7.8 µg/mL,–,CC(C)(C)[C@@H]1O[C@H](c2ccc(Cl)cc2)[C@H]2C(O)=C(C(=O)NC34CC5CC(CC(C5)C3)C4)C(=O)N21 (mixture of isomers) [compound 21],"MIC [3, 12]: 7.8 µg/mL; MIC ([3]; Table S5, against S. aureus): 7.8 µg/mL"
–,0.49 µg/mL,–,CC(C)(C)[C@@H]1O[C@H](c2ccc(Br)cc2)[C@H]2C(O)=C(C(=O)NC34CC5CC(CC(C5)C3)C4)C(=O)N21 (mixture of isomers) [compound 22],"MIC [3, 12]: 0.49 µg/mL; MIC ([3]; Table S5, against S. aureus): 0.49 µg/mL"
–,–,–,CCOC(=O)C1=C(O)[C@@H]2[C@@H](c3ccccc3)O[C@@H](C(C)(C)C)N2C1=O (racemic) [10a],antibacterial activity against MRSA (in words) [3]: no activity; antibacterial activity against E. coli (in words) [8]: no activity
–,–,–,CCOC(=O)C1=C(O)[C@@H]2[C@@H](c3ccc(F)cc3)O[C@@H](C(C)(C)C)N2C1=O (racemic) [10c],"EC50 [2]: 31.3 µg/mL; MIC [3, 9]: 31.3 µg/mL; MIC [3, 12]: 31.3 µg/mL; EC50 [5]: 62.5 µg/mL; EC50 [6]: 62.5 µg/mL; EC50 [7]: 62.5 µg/mL"
–,–,–,CCOC(=O)C1=C(O)[C@@H]2[C@@H](c3ccc(Cl)cc3)O[C@@H](C(C)(C)C)N2C1=O (racemic) [10d],"EC50 [2]: 31.3 µg/mL; MIC [3, 9]: 15.6 µg/mL; MIC [3, 12]: 15.6 µg/mL; EC50 [5]: 31.3 µg/mL; EC50 [6]: 62.5 µg/mL; EC50 [7]: 31.3 µg/mL"
–,–,–,CCOC(=O)C1=C(O)[C@@H]2[C@@H](c3ccc(Br)cc3)O[C@@H](C(C)(C)C)N2C1=O (racemic) [10e],"EC50 [2]: 31.3 µg/mL; MIC [3, 9]: 15.6 µg/mL; MIC [3, 12]: 15.6 µg/mL; EC50 [5]: 62.5 µg/mL; EC50 [6]: 62.5 µg/mL; EC50 [7]: 62.5 µg/mL"
7.8 µg/mL,7.8 µg/mL,7.8 µg/mL,CC(C)(C)[C@@H]1O[C@H](c2ccccc2)[C@H]2C(O)=C(C(=O)Nc3ccccc3)C(=O)N21 (racemic) [12b],–
3.9 µg/mL,3.9 µg/mL,3.9 µg/mL,CC(C)(C)[C@@H]1O[C@H](c2ccccc2)[C@H]2C(O)=C(C(=O)Nc3ccc(Br)cc3)C(=O)N21 (racemic) [12c],–
3.9 µg/mL,3.9 µg/mL,3.9 µg/mL,CC(C)(C)[C@@H]1O[C@H](c2ccccc2)[C@H]2C(O)=C(C(=O)Nc3ccc([N+](=O)[O-])cc3)C(=O)N21 (racemic) [12d],antibacterial activity against MRSA (in words) [3]: good bioactivity
1 µg/mL,1 µg/mL,1.0 µg/mL,CC(C)(C)[C@@H]1O[C@H](c2ccccc2)[C@H]2C(O)=C(C(=O)Nc3ccc(C(F)(F)F)cc3)C(=O)N21 (racemic) [12e],–
1 µg/mL,1 µg/mL,1.0 µg/mL,Cc1cc(Cl)ccc1NC(=O)C1=C(O)[C@@H]2[C@@H](c3ccccc3)O[C@@H](C(C)(C)C)N2C1=O (racemic) [12g],–
3.9 µg/mL,–,3.9 µg/mL,Cc1ccc(NC(=O)C2=C(O)[C@@H]3[C@@H](c4ccccc4)O[C@@H](C(C)(C)C)N3C2=O)c(Cl)c1 (racemic) [12h],–
0.49 µg/mL,–,0.49 µg/mL,CC(C)(C)[C@@H]1O[C@H](c2ccccc2)[C@H]2C(O)=C(C(=O)Nc3ccc(C(F)(F)F)cc3Cl)C(=O)N21 (racemic) [12i],antibacterial activity against MRSA (in words) [3]: high activities

"MIC [3, 10]","MIC [3, 11]",MIC ([3]; Table S6),Structure (SMILES),other results
3.9 µg/mL,–,3.9 µg/mL,CC(C)(C)[C@@H]1O[C@H](c2ccccc2)[C@H]2C(O)=C(C(=O)Nc3ccc(Cl)cc3C(F)(F)F)C(=O)N21 (racemic) [12j],–
3.9 µg/mL,–,3.9 µg/mL,Cc1ccc(NC(=O)C2=C(O)[C@@H]3[C@@H](c4ccccc4)O[C@@H](C(C)(C)C)N3C2=O)c(C)c1 (racemic) [12k],–
1 µg/mL,–,1.0 µg/mL,Cc1cc(F)ccc1NC(=O)C1=C(O)[C@@H]2[C@@H](c3ccccc3)O[C@@H](C(C)(C)C)N2C1=O (racemic) [12l],antibacterial activity against MRSA (in words) [3]: high activities
0.49 µg/mL,0.49 µg/mL,0.49 µg/mL,CCCCCCc1ccc(NC(=O)C2=C(O)[C@@H]3[C@@H](c4ccccc4)O[C@@H](C(C)(C)C)N3C2=O)cc1 (racemic) [12m],–
1 µg/mL,1 µg/mL,1.0 µg/mL,CC(C)(C)[C@@H]1O[C@H](c2ccccc2)[C@H]2C(O)=C(C(=O)NC3CCCCC3)C(=O)N21 (racemic) [12n],–
1 µg/mL,1 µg/mL,1.0 µg/mL,CC(C)(C)[C@@H]1O[C@H](c2ccccc2)[C@H]2C(O)=C(C(=O)NC3CCCCCC3)C(=O)N21 (racemic) [12o],–
3.9 µg/mL,3.9 µg/mL,3.9 µg/mL,CCCCCCNC(=O)C1=C(O)[C@@H]2[C@@H](c3ccccc3)O[C@@H](C(C)(C)C)N2C1=O (racemic) [12p],–
0.49 µg/mL,0.49 µg/mL,0.49 µg/mL,CCCCCCCCCNC(=O)C1=C(O)[C@@H]2[C@@H](c3ccccc3)O[C@@H](C(C)(C)C)N2C1=O (racemic) [12q],–
0.49 µg/mL,0.49 µg/mL,0.49 µg/mL,CCCCCCCCCCCCNC(=O)C1=C(O)[C@@H]2[C@@H](c3ccccc3)O[C@@H](C(C)(C)C)N2C1=O (racemic) [12r],–
1 µg/mL,1 µg/mL,1.0 µg/mL,CC(C)(C)[C@@H]1O[C@H](c2ccccc2)[C@H]2C(O)=C(C(=O)Nc3ccc(C4CCCCC4)cc3)C(=O)N21 (racemic) [12s],–
125 µg/mL,125 µg/mL,125 µg/mL,CC(C)(C)[C@@H]1O[C@H](c2ccccc2)[C@H]2C(O)=C(C(=O)NC3CCOCC3)C(=O)N21 (racemic) [12t],–
15.6 µg/mL,15.6 µg/mL,15.6 µg/mL,CC(C)(C)[C@@H]1O[C@H](c2ccccc2)[C@H]2C(O)=C(C(=O)NCc3ccccc3)C(=O)N21 (racemic) [12u],–
3.9 µg/mL,–,3.9 µg/mL,CC(C)(C)NC(=O)C1=C(O)[C@@H]2[C@@H](c3ccccc3)O[C@@H](C(C)(C)C)N2C1=O (racemic) [12v],antibacterial activity against MRSA (in words) [3]: comparable activity with the hexyl 12p
–,1 µg/mL,–,Cc1ccc([C@H]2O[C@@H](C(C)(C)C)N3C(=O)C(C(=O)Nc4ccc(Cl)cc4C)=C(O)[C@H]23)cc1 (racemic) [13b],"MIC [3, 12]: 1 µg/mL; MIC ([3]; Table S5, against S. aureus): 1.0 µg/mL"
–,–,–,CCOC(=O)C1=C(O)[C@@H]2[C@@H](c3ccc(C)cc3)O[C@@H](C(C)(C)C)N2C1=O [10b],antibacterial activity against MRSA (in words) [3]: no activity; antibacterial activity against E. coli (in words) [8]: no activity
